Laboratory results taken from PMC8041284, “Tunable Methacrylamides for Covalent Ligand Directed Release Chemistry” (Journal of the American Chemical Society, 2021).
Like-named read-outs stand apart in the source and are kept apart here.

Target: BTK (Homo sapiens, UniProt Q06187)
Experiment: biochemical
[1] = read-out: BTK inhibition (%), 0.75 uM BTK, […] probe 3l, 15 min preincubation

Sequence of BTK (Q06187 402-655 limits assumed): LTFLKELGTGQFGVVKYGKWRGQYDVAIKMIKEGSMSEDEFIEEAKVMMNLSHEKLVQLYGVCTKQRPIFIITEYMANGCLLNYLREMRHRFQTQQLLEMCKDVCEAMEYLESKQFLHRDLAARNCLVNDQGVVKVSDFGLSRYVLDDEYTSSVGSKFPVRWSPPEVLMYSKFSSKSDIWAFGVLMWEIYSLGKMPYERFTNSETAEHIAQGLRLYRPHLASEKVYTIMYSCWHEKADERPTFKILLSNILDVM

CCC(=O)O[C@H]1CC[C@H]2[C@@H]3CC[C@H]4CC(=O)[C@H](C)C[C@]4(C)[C@H]3CC[C@]12C [PCM-0215061]
inhibition at 10 µM (read-out: BTK inhibition (%)): -14%

Nc1cc(N)c(N)cc1N [PCM-0216082]
inhibition at 10 µM [1]: 31.7%

COc1ccc([C@@H]2CC(=O)c3c(O)cc(O[C@@H]4O[C@H](CO)[C@@H](O)[C@H](O)[C@H]4O[C@@H]4O[C@@H](C)[C@H](O)[C@@H](O)[C@H]4O)cc3O2)cc1O [PCM-0214691]
inhibition at 10 µM [1]: -10.3%

Oc1ccc([C@H]2COc3cc(O)ccc3C2)cc1 [PCM-0095319]
inhibition at 10 µM [1]: -6.2%

CN(C)CCC=C1c2ccccc2CCc2ccccc21 [PCM-0064521]
inhibition at 10 µM [1]: -22.6%

CC(C)(C)c1cc(O)ccc1O [PCM-0215107]
inhibition at 10 µM [1]: 5.5%

COc1cc(C(=O)O)ccc1O [PCM-0216103]
inhibition at 10 µM [1]: 3.1%

Nc1nc(Cl)nc2c1ncn2[C@@H]1O[C@H](CO)[C@@H](O)[C@@H]1F [PCM-0094949]
inhibition at 10 µM [1]: 1.4%

COc1ccc2c(c1OC)CC1c3c(cc4c(c3-2)OCO4)CCN1C (centres unmarked) [PCM-0216450]
inhibition at 10 µM [1]: 0.8%

C[C@H]1O[C@@H](O[C@H]2CC[C@@]3(C)[C@@H](CC[C@]4(C)[C@@H]3C=C[C@]35OC[C@@]6(CCC(C)(C)C[C@H]63)[C@@H](O)C[C@]54C)[C@]2(C)CO)[C@H](O)[C@@H](O[C@@H]2O[C@H](CO)[C@@H](O)[C@H](O)[C@H]2O)[C@H]1O [PCM-0216249]
inhibition at 10 µM [1]: -23.4%

O=C1C(=O)N(Cc2ccc(Cl)c(Cl)c2)c2ccccc21 [PCM-0095429]
inhibition at 10 µM [1]: 9.3%

COc1cc2ncnc(Nc3ccc(Oc4ccccc4)cc3C)c2cc1OC [PCM-0215704]
inhibition at 10 µM [1]: 110%

O=C(O)C(O)Cc1ccc(O)c(O)c1 (centres unmarked) [PCM-0089145]
inhibition at 10 µM [1]: 18.7%

CC(C)(C)c1cc(NC(=O)Nc2ccc(-c3cn4c(n3)sc3cc(OCCN5CCOCC5)ccc34)cc2)no1 [PCM-0095196]
inhibition at 10 µM [1]: 1.4%

CC(=O)O[C@@]12CO[C@@H]1C[C@H](O)[C@@]1(C)C(=O)[C@H](O)C3=C(C)[C@@H](OC(=O)[C@H](O)[C@@H](NC(=O)c4ccccc4)c4ccccc4)C[C@@](O)([C@@H](OC(=O)c4ccccc4)[C@H]21)C3(C)C [PCM-0214981]
inhibition at 10 µM [1]: 9.3%

CN(CC(=O)N(Cc1ccc(C2CCCCC2)cc1)c1ccc(C(=O)O)cc1)S(=O)(=O)c1c(F)c(F)c(F)c(F)c1F [PCM-0095763]
inhibition at 10 µM [1]: 68.7%

COCCCN1CCC(NC(=O)c2cc(Cl)c(N)c3c2OCC3)CC1 [PCM-0095543]
inhibition at 10 µM [1]: -16.3%

CCOC(=O)c1c(C)n(C)c2ccc(O)cc12 [PCM-0095233]
inhibition at 10 µM [1]: -14%

OCC1(O)OC[C@@H](O)[C@H](O)[C@@H]1O (some centres unmarked) [PCM-0216581]
inhibition at 10 µM [1]: 6.9%

C=C1C(=O)O[C@@H]2C[C@@]3(C)CCCC(=C)[C@@H]3C[C@H]12 [PCM-0214959]
inhibition at 10 µM [1]: 15.9%

COc1ccc2c(Oc3ccc(NC(=O)c4c(C)n(CC(C)(C)O)n(-c5ccccc5)c4=O)nc3)ccnc2c1 [PCM-0095484]
inhibition at 10 µM [1]: 12.4%

ClCCN(Cc1ccccc1)Cc1ccccc1 [PCM-0216162]
inhibition at 10 µM (read-out: BTK inhibition (%)): -20.1%

C[C@@H]1COC(Nc2ccc3ncnc(Nc4ccc(OCc5nccs5)c(Cl)c4)c3c2)=N1 [PCM-0095513]
inhibition at 10 µM [1]: 17.2%

Cc1cnc(NC(=O)Nc2cc(Br)c(C)cc2OC[C@@H]2CNCCO2)cn1 [PCM-0095485]
inhibition at 10 µM [1]: 7.6%

CC(C)[C@H](C(=O)Nc1ccc(C(=O)NO)cc1)c1ccccc1 [PCM-0095283]
inhibition at 10 µM [1]: 17.1%

CC(C)c1onc(-c2c(Cl)cccc2Cl)c1COc1ccc(/C=C/c2cccc(C(=O)O)c2)c(Cl)c1 [PCM-0095360]
inhibition at 10 µM [1]: 52.4%

Clc1ccc(C(c2ccccc2Cl)C(Cl)Cl)cc1 (centres unmarked) [PCM-0064460]
inhibition at 10 µM [1]: 19.5%

CCOc1cc2ncc(C#N)c(Nc3ccc(F)c(Cl)c3)c2cc1NC(=O)/C=C/CN(C)C [PCM-0095063]
inhibition at 10 µM [1]: 96.6%

Cc1nc(NC(=O)N2CCC[C@H]2C(N)=O)sc1-c1ccnc(C(C)(C)C(F)(F)F)c1 [PCM-0095427]
inhibition at 10 µM [1]: -7.6%

C[C@H](CCC(=O)O)[C@H]1CC[C@H]2[C@@H]3[C@H](O)C[C@@H]4C[C@H](O)CC[C@]4(C)[C@H]3CC[C@]12C [PCM-0214654]
inhibition at 10 µM [1]: 6.2%

N#Cc1cnc(Nc2cc(NC[C@H]3CNCCO3)c(C(F)(F)F)cn2)cn1 [PCM-0214576]
inhibition at 10 µM [1]: -0.7%

Cn1cc(C2=C(c3cn(C4CCN(Cc5ccccn5)CC4)c4ccccc34)C(=O)NC2=O)c2ccccc21 [PCM-0094982]
inhibition at 10 µM [1]: 10.3%

CC[C@@H](CO)NCCN[C@@H](CC)CO [PCM-0090100]
inhibition at 10 µM [1]: 29.6%

Nc1nc(F)nc2c1ncn2[C@@H]1O[C@H](COP(=O)(O)O)[C@@H](O)[C@@H]1O [PCM-0090501]
inhibition at 10 µM [1]: -8.6%

COc1ccc(/C=C\c2cc(OC)c(OC)c(OC)c2)cc1OP(=O)(O)O [PCM-0215231]
inhibition at 10 µM [1]: -27.2%

Cc1cc(O)c(-c2ccc([C@@H](C)CN(C)C)cc2)c2c1[nH]c(=O)c1sccc12 [PCM-0215805]
inhibition at 10 µM [1]: 38.6%

CC(=O)O[C@]1(C(C)=O)CC[C@H]2[C@@H]3C[C@H](C)C4=CC(=O)CC[C@]4(C)[C@H]3CC[C@@]21C [PCM-0095356]
inhibition at 10 µM [1]: -18.7%

CC(C)NC[C@H](O)COc1ccc(CCOCC2CC2)cc1 [PCM-0214769]
inhibition at 10 µM [1]: 0.8%
